Laboratory results reported in ChEMBL document CHEMBL4420065, “Synaptojanin-2 inhibitors for use in the treatment of cancer” (2017).
The source made the active and inactive calls. The rule behind the calls is not given here.

These compounds were tested on MDA-MB-231. Settings: Homo sapiens, 10 uM.
Description: Inhibition of cell invasion of human MDA-MB-231 cells at 10 uM incubated for 96 hrs by Matrigel based assay
In the case of `O=C1C[C@@H](c2ccc(O)c(O)c2)Oc2cc(O[C@@H]3O[C@H](CO)[C@@H](O)[C@H](O)[C@H]3O)cc(O)c21`, the inhibition is reported as “Active”. With `Cc1c(O)cc2c(c1O)C(=O)[C@H](O)[C@@H](c1ccc(O)c(O)c1)O2` the inhibition was “Active”. With `C/C(=C\CO[C@@H]1O[C@H](CO)[C@@H](O)[C@H](O)[C@H]1O)C(O)CCC(C)(C)O` (stereo not given in full) the inhibition was “Active”. With `COc1cc(C2c3c(cc(OC)c(O)c3OC)CC(CO)C2COC2OCC(O)C(O)C2O)cc(OC)c1O` (stereo not given) the inhibition was “Active”. For `COc1cc(O)cc(O)c1C(=O)c1ccc(O)c(O)c1`, the inhibition was “Active”.
